These results are taken from patent US9604931B2, “Nuclear receptor binding agents” (GTx, Inc., priority 2007, dated 2017).

Broadly, the pKi is the negative decadic logarithm of the Ki, by convention in mol/L. What is called inhibition is the drop in the measured response relative to a control, in per cent.

In data set [1] the target is ERα ligand binding domain (Homo sapiens, UniProt P03372). Nature of the data set: Competitive [3H]-estradiol binding assay, ER-α (Example 21). The procedure: ER binding affinity was determined via one of the following methods:
Briefly, the incubation mixture was filtered through a high affinity protein binding filter, and washed several times to remove any unbound radioactivity. The filter plate was air dried and sealed on the bottom.
Nonspecific binding was subtracted from total binding to yield specific binding.

The test system of data set [2] is genes implicated in lipogenesis, lypolysis, anti-oxidant and other related pathways. Nature of the data set: TaqMan PCR gene expression arrays on tissues of high fat diet mice. In kind it is in vivo, C57BL6 male mice.
Description: RNA extracted from WAT, BAT, liver and muscle were reverse transcribed using cDNA synthesis kit (Applied biosystems, Foster city, CA).
RNA from liver, muscle, WAT and BAT were applied to these arrays.
The test system of data set [3] is high fat diet induced obesity in already obese mice. The experiment in a line: High fat diet induced obesity, treatment study (study 3). In kind it is in vivo, C57BL6 male mice. On the procedure:
For the treatment obesity study (where the animals were fed with high fat diet for six weeks prior to beginning drug treatment for 18 weeks), MRI scans were performed at weeks 0, 6, 12, 18 and 24.
As the first two studies were designed to prevent obesity (i.e. animals were fed with a high fat diet and treated simultaneously), a subsequent study was conducted to evaluate the ability of 12u to affect body composition in mice that were already fed with the high fat diet and were obese. Mice were divided into three groups with one group fed with normal diet (control) and the other two groups fed with the high fat diet for 6 weeks. […] All the animals were maintained in their respective diets during the entire course of the study.

The subject of data set [4] is LNCaP cells and human prostate stromal cells xenograft. The experiment in a line: LNCaP-stromal cell xenograft tumor growth. In kind it is in vivo, nude mice. Conditions: 30 mg/kg/day for 21 days. On the procedure: Prostate tumor xenografts were established with LNCaP cells and human prostate stromal cells in nude mice to establish the in vivo anti-proliferative effects of these ER-β NRBAs. A 4:1 ratio (based on cell number) of LNCaP:stroma cells was injected subcutaneously in nude mice and allowed to grow until they attained 100 mm^3 in volume, as measured by calipers. […] Tumor volumes were measured twice a week and percent tumor volume calculated, after 10, 14 and 21 days.

Data set [5] has as its system LNCaP prostate cancer cells. Nature of the data set: 3H thymidine incorporation, LNCaP cells. Format: cell-based. The note with it: 6 days treatment. On the procedure: (§1) The effects of treatment of an ER-β selective NRBA of this invention on cancer cell proliferation was examined using LNCaP prostate cancer cells and C-26 colon cancer cells. LNCaP or C-26 cells were plated in growth medium in 24 well and 6 well plates, respectively. LNCaP cells were treated for 6 days and C-26 cells were treated for 3 days at the indicated concentration. ^3H thymidine incorporation was measured at the end of treatment as an indicator of cell proliferation.
Background: Dividing cells build labelled thymidine or BrdU into new DNA.

The subject of data set [6] is ovariectomy-induced (postmenopausal) obesity model. Nature of the data set: Ovariectomy-induced obesity model. In kind it is in vivo, female C57BL6 mice. The note with it: OVX mice. On the procedure: For the ovariectomy-induced obesity model, 6 week old female C57BL6 mice were sham operated or ovariectomized and the study was carried out for 9 weeks as indicated above.
Since it was shown that β-SERMs affected body composition in an animal model of high fat diet-induced obesity, they might also be effective in an animal model of postmenopausal obesity.

Data set [7] relates to Ang II induced hypertension. Nature of the data set: Angiotensin II model, blood pressure. In kind it is in vivo, ovariectomized C57/BJ6 and ERβKO mice. Set-up: Systolic pressure / Diastolic pressure: unit: mmHg. Conditions: for Diastolic pressure / Systolic pressure: Ang II. On the procedure:
Thirty, ten week old female ovariectomized C57/BJ6 mice, were obtained from Harlan/Sprague Dawley and were housed in 12 hour on/off lighting and fed rodent chow devoid of soy or most plant products. Ovariectomized ERβ gene-deleted (ERβKO or ERβ-KO) mice were obtained from Ken Korach, NIEHS. The ERβ mice were originally created by Drs. Smithies, Gustafsson, and colleagues. All mice were identically housed and fed the same chow.
This pellet is well documented to produce physiological levels of E2 in the serum of mice.
Blood pressure was measured 4 times during the 21-day period, using the CODA non-invasive blood pressure measuring system (Kent Scientific, Torrington, Conn.). Measurements were done by volume pressure recordings of the tail.

For another data set, the system named is C-26 colon cancer cells. The experiment in a line: 3H thymidine incorporation, C-26 cells. In kind it is cell-based. The note with it: 3 days treatment. On the procedure:
as §1

The test system of data set [8] is LPS induced THP-1 macrophage cell adhesion to bEND-3 endothelial cells. The experiment in a line: Macrophage adhesion assay. Format: cell-based. The procedure:
To determine the anti-inflammatory effects of ER-β NRBAs in vitro, a macrophage adhesion assay was performed. Macrophages adhere to endothelial cells due to elevated levels of pro-inflammatory cytokines. This principle was used in this assay to determine the effect of one of the ER-NRBAs on bacterial lipopolysaccharide (LPS) induced THP-1 macrophage cell adhesion to bEND-3 endothelial cells.

The mark [9] stands for this setting: Brown Adipose Tissue, vs high fat diet vehicle, >2-fold, p<0.01.
The mark [10] stands for this setting: Liver, vs high fat diet vehicle, >2-fold, p<0.01.
Setting [11] is: White Adipose Tissue, vs high fat diet vehicle, >2-fold, p<0.01.

pKi: −log10 of the molar value. Entries after “also recorded” stand apart in the source; their conditions may differ.

ERα ligand binding domain, sequence (P03372 whole entry, looked up, the tested form may be a part): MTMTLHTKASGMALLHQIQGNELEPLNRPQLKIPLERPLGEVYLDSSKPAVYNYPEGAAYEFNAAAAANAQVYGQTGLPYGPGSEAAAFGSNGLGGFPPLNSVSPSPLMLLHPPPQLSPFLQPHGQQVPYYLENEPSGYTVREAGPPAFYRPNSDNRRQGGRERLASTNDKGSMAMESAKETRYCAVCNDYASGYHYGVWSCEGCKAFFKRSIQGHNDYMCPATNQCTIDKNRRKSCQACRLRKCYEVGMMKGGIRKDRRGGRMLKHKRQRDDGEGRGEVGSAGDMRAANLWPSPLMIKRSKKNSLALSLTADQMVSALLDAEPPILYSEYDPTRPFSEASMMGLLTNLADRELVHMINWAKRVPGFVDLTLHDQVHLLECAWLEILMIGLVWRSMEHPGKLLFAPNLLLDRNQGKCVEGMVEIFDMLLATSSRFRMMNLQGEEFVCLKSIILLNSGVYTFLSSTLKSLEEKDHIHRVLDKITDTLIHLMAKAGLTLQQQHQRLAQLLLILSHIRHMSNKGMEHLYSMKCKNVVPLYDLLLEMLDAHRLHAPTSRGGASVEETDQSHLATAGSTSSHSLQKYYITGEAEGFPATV

In the case of `N#Cc1cn(-c2ccc(O)cc2)c(=O)c2c(O)cc(O)cc12` [14m, 6,8-dihydroxy-2-(4-hydroxyphenyl)-1-oxo-1,2-dihydroisoquinoline-4-carbonitrile], the negative-log Ki (pKi) in data set [1] (read-out: ER-α binding constant (Ki)) is 7.03. Also, in [2] (BAT and WAT), the “High fat diet increase in expression of lipogenesis genes (LPL, FASN, SREBP-1, PLTP, Dhcr24)” value is listed as “reversed”. In data set [2] (setting [9]), the “Ddit3 gene expression Increase/Decrease” value is on record as “Decrease”, the “Dhcr24 gene expression Increase/Decrease” value is on record as “Decreased”, the “ER-β gene expression Increase/Decrease” value is reported as “Increased” and the “GPx-3 gene expression Increase/Decrease” value is “Increase”. In [2] (setting [9]), the “LPL gene expression Increase/Decrease” value is “Decrease”, the “PLTP gene expression Increase/Decrease” value was “Decrease” and the “UCP-1 gene expression Increase/Decrease” value is reported as “increase in UCP-1 gene expression; also recorded: Increased”. Also, in [2] (setting [10]), the “CIDEA gene expression Increase/Decrease” value is reported as “Decrease” and the “GPx-3 gene expression Increase/Decrease” value is listed as “Increase”. In data set [2] (setting [11]), the “Ddit3 gene expression Increase/Decrease” value is reported as “Decrease”, the “FASN gene expression Increase/Decrease” value was “Decrease”, the “LPL gene expression Increase/Decrease” value is “Decrease” and the “SREBP1 gene expression Increase/Decrease” value was “Decrease”.
With `O=c1c2c(O)cc(O)cc2c(Br)cn1-c1ccc(O)cc1` [12u, 4-bromo-6,8-dihydroxy-2-(4-hydroxyphenyl)isoquinolin-1(2H)-one], the “Body weight versus normal diet control mice” value in data set [3] (by week 16) is recorded as “not significantly different from normal diet control mice”. In [3] (obese mice, 30 mg/kg/day s.c.), the “Body fat increase (MRI)” value is given as “reduced”. Moreover, the “Body weight gain after start of treatment” value in [3] (obese mice, 30 mg/kg/day s.c. from week 6) was “prevented further gains in body weight”. Moreover, the Xenograft tumor growth result in [4] is “inhibited the growth of tumor significantly”. Moreover, in data set [5], the “Growth of LNCaP prostate cancer cells” value is reported as “significantly inhibited”. Also, in data set [6], the Body weight gain entry is on record as “did not inhibit body weight gain”, the “Fat mass (MRI)” value is listed as “completely prevented the increase in fat mass”, the Feed consumption result is given as “increased the feed consumption” and the “Lean mass (MRI)” value is reported as “significantly increased lean mass”. In addition, in data set [6], the Uterine weight result is “without affecting uterine weight” and the WAT weight entry was “completely inhibited the WAT”. In data set [7] (ERβ-KO mice, 21 days), the “Ang II induced hypertension, diastolic pressure” value is reported as “unchanged” and the “Ang II induced hypertension, systolic pressure” value is on record as “mildly reduced”. In data set [7] (ERβKO, 7 days), this compound displayed a Diastolic pressure of 98 and a Systolic pressure of 143. In data set [7] (ERβKO, 14 days), this compound displayed a Diastolic pressure of 98 and a Systolic pressure of 147. Further, in data set [7] (ERβKO, 21 days), the Diastolic pressure came to 96 and the Systolic pressure amounted to 146. Further, in data set [7] (ERβKO, time 0), the Diastolic pressure stood at 87 and the Systolic pressure worked out at 123. In [7] (WT, 7 days), this compound gave a Diastolic pressure of 88 and a Systolic pressure of 120. Also, in [7] (WT, 14 days), the Diastolic pressure is listed as 87 and the Systolic pressure came to 125. In data set [7] (WT, 21 days), this compound returned a Diastolic pressure of 86 and a Systolic pressure of 130. In [7] (WT, time 0), this compound returned a Diastolic pressure of 85 and a Systolic pressure of 120. Besides, the “Ang II induced hypertension” value in data set [7] (wildtype mice, 21 days) was “largely prevented; also recorded: prevented Ang II induced cardiac hypertension”. For the same compound, the inhibition at 0.1 µM in [1] (100 nM of compound, read-out: Percent Inhibition of [3H]-Estradiol Binding to ER-α) turned out to be 61.3%. The “Growth of C-26 colon cancer cells” value in the data set with C-26 colon cancer cells is “significantly inhibited”. Also, in [8], the “Adhesion of 3H labeled THP-1 cells to bEND-3 cells” value is given as “significantly inhibited”.
